According to patent US10660939B2, “Therapies for obesity, diabetes and related indications” (Palatin Technologies, Inc., priority 2015, dated 2020):
Values belong to the compound of their own block, whether it stands above or below them.

Columns and labels:
[1] = biological target: T1, hMC4r (Homo sapiens, UniProt P32245); assay: cAMP accumulation functional assay in HEK-293 cells expressing hMC4r; format: cell-based; conditions: agonist = 70% or greater intrinsic activity
T1 construct: expressed in transfected cells; host or cells: HEK-293
T1 sequence (P32245 whole entry): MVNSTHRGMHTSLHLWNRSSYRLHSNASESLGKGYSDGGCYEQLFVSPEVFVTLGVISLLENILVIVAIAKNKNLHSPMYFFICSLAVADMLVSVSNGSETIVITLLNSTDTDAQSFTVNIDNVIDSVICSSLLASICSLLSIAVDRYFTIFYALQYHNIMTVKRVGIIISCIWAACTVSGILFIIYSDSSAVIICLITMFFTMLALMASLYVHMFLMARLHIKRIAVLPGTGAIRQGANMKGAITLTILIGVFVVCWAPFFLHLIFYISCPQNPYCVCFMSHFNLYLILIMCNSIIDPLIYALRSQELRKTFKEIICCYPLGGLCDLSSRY
Method: Accumulation of intracellular cAMP was examined as a measure of the ability of the MC4r peptides to elicit a functional response in HEK-293 cells that express MC4r. Confluent HEK-293 cells that express recombinant hMC4r were detached from culture plates by incubation in enzyme-free cell dissociation buffer. Dispersed cells were suspended in Earle's Balanced Salt Solution containing 10 mM HEPES (pH 7.5), 1 mM MgCl2, 1 mM glutamine, 0.5% albumin and 0.3 mM 3-isobutyl-1-methyl-xanthine (IBMX), a phosphodiesterase inhibitor. […] Cells were exposed for 15 minutes at 37° C. to peptides of the present invention dissolved in DMSO (final DMSO concentration of 1%) at a concentration range of 0.05-5000 nM in a total assay volume of 200 μL. […] Data analysis was performed by nonlinear regression analysis with Graph-Pad Prism® software. The maximum efficacies of the test peptides of the present invention were compared to that achieved by the reference melanocortin agonist NDP-α-MSH.

[2] = diet induced obese Sprague-Dawley rats, GLP-1 infusion and Peptide No. 154 b.i.d., fasted glucose and insulin (Example 9); format: in vivo, rat; conditions: DIO rats, 1.0 mg/kg Peptide No. 154 b.i.d. alone
Method: 9. MC4r 154 was evaluated with GLP-1 to determine effect on body weight and feed intake in diet induced obese Sprague-Dawley rats. Rats were acquired at 17 weeks and pre-conditioned for 5 weeks on high fat diet prior to dosing. No sharp increase in weight was noted, likely due to late onset of the high fat diet. At study day −2, baseline GTT and insulin levels were assessed on 16-hour fasted animals. Animals were then permitted a 2-day recovery period, and on study day 0, animals were randomized into treatment groups by body weight and Alzet continuous infusion pumps containing either vehicle or GLP-1 (for dosing at either 10 or 100 μg/kg/day) were implanted. Beginning on study day 1, body weight and feed weights were taken in the mornings. Beginning on study day 4, twice daily (b.i.d.) subcutaneous dosing of saline was initiated for all groups other than the treatment naïve group to acclimate the animals to handling and subcutaneous dosing. […] Animals were fasted for the 16 hours prior to the GTT.
Data is shown as the percent change from study day −2 baseline test±SEM.
FIG. 4 compares the fasted insulin levels at study day −2 and study day 12, with insulin measured after 16 hour fast and prior to GTT testing. Data is shown as ng/mL insulin±SEM.

[3] = diet induced obese mice, Peptide No. 154 with GLP-1, Alzet pumps (Example 8); format: in vivo, mouse; conditions: DIO mice, continuous infusion of 30 mg/kg/day; lost weight only for the first two days; ±0.34 SEM
Method: Groups 1, 2 and 4 were provided ad libitum with a 45% high fat rodent diet. Animals in Group 3 were pair-fed to Group 2. The amount of food consumed in Group 2 was the amount of food given to Group 3 in the next 24 hour period. For group 3 (pair-fed group), the pump was implanted 1 day later than other groups to account for pair-feeding. On day −2 and day 6, animals from Groups 1, 2, and 4 were fasted overnight and baseline and terminal glucose tolerance tests (GTT) was conducted. GTT and insulin levels in Group 3 were conducted one day later. Body weight and food intake were measured each day. To conduct the GTT, on study day −2 (−1 for Group 3) (baseline test) and day 6 (7 for Group 3) (termination test), 1 g/kg glucose was orally administered. Glucose levels were taken prior to glucose administration and 15, 30, 60, 90 and 120 minutes post-glucose administration.
Data is expressed as percent change at the termination test, ±standard deviation (SD) from the baseline test. This was calculated as: (AUCday 7−AUCday −2)[…] In FIG. 1, diet induced obese mice were administered MC4r 154 (30 mg/kg/day) either with or without 0.1 mg/kg/day GLP-1, with one group pair fed to the MC4r 154 group but administered only GLP-1 (“Pair-Fed to MC4r 154+GLP-1”).
Data is shown as the average of body weight change in grams±standard error of the mean (SEM) from study day 0.

[4] = DIO mice, single daily subcutaneous bolus dose of Peptide No. 154 (Example 10); format: in vivo, mouse; conditions: single daily subcutaneous dose of 3 mg/kg, on day 5, ±0.6 SEM
Method: 10. […] By contrast, animals receiving a single daily subcutaneous dose of 3 mg/kg continuously lost weight over 5 days, and reached a maximum weight loss on day 5 of 4.2 g±0.6 SEM compared to baseline (study day 0).

[5] = diet induced obese rats, GLP-1 infusion and Peptide No. 154 twice daily, body weight and feed intake (Example 11); format: in vivo, rat; conditions: DIO rats
Method: 11. […] Each treatment group was compared to the vehicle group using t-test, one-way ANOVA or two-way ANOVA followed by Dunnett's multiple comparisons (GraphPad). A p value<0.05 was considered to represent a significant difference.
Individual body weights were measured on study days 1-9. Percent change in body weight is calculating according to this formula: 100*(value-baseline)/baseline, where value is the weight of the animal on study day in question and baseline is the weight of the same animal on study day −1.
On days 1-4, feeds were weighed at 0, and 24 hours after lights off. On days 5-9, feeds were weighed at 0, 2, 6 and 24 hours after lights off.

[6] = biological target: T1, hMC4r; assay: competitive inhibition binding assay with Eu-NDP-α-MSH (time-resolved fluorometry)
Method: After incubation for 90 minutes at 37° C., the reaction was stopped by filtration over AcroWell 96-well filter plates (Pall Life Sciences). The filter plates were washed 4 times with 200 μL of ice-cold phosphate-buffered saline. DELFIA Enhancement solution (PerkinElmer Life Sciences) was added to each well. […] Each assay was conducted in duplicate and mean values were utilized. Ki values were determined by curve-fitting with Graph-Pad Prism® software using a one-site fixed-slope competition binding model.

[7] = biological target: T1, hMC4r; assay: competitive inhibition binding assay with [I125]-NDP-α-MSH, membrane homogenates of HEK-293 cells; conditions: averaged values, not marked *: [I125]-NDP-α-MSH; read-out: MC4r Ki
Method: Assays were performed in 96 well GF/B Millipore multiscreen filtration plates (MAFB NOB10) pre-coated with 0.5% bovine serum albumin (Fraction V). […] After incubation for 60 minutes at 37° C., the assay mixture was filtered and the membranes washed three times with ice-cold buffer. Filters were dried and counted in a gamma counter for bound radioactivity. […] Maximal specific binding (100%) was defined as the difference in radioactivity (cpm) bound to cell membranes in the absence and presence of 1 μM NDP-α-MSH. […] Each assay was conducted in triplicate and the actual mean values are described, with results less than 0% reported as 0%. Ki values for test peptides of the present invention were determined using Graph-Pad Prism® curve-fitting software.

functional status at MC4r (agonist / partial agonist) [1]: agonist
SMILES: CC(=O)N[C@@H](CCCNC(=N)N)C(=O)N[C@H]1CCCC(=O)NCC[C@@H](C(N)=O)NC(=O)[C@H](Cc2c[nH]c3ccccc23)NC(=O)[C@H](CCCNC(=N)N)NC(=O)[C@@H](Cc2ccccc2)NC(=O)[C@H](Cc2c[nH]cn2)NC1=O [compound 126, Ac-Arg-cyclo(hGlu-His-D-Phe-Arg-Trp-Dab)-NH2]

functional status at MC4r (agonist / partial agonist) [1]: agonist
SMILES: CC(=O)N[C@@H](CCCNC(=N)N)C(=O)N[C@H]1CCCC(=O)NCC[C@@H](C(N)=O)NC(=O)[C@H](Cc2c[nH]c3ccccc23)NC(=O)[C@H](CCCNC(=N)N)NC(=O)[C@@H](Cc2ccccc2)NC(=O)[C@H](CCN)NC1=O [compound 127, Ac-Arg-cyclo(hGlu-Dab-D-Phe-Arg-Trp-Dab)-NH2]

functional status at MC4r (agonist / partial agonist) [1]: agonist
SMILES: CC(=O)N[C@@H](CCCNC(=N)N)C(=O)N[C@H]1CCNC(=O)CCC[C@@H](C(N)=O)NC(=O)[C@H](Cc2c[nH]c3ccccc23)NC(=O)[C@H](CCCNC(=N)N)NC(=O)[C@@H](Cc2ccccc2)NC(=O)[C@H](Cc2c[nH]cn2)NC1=O [compound 128, Ac-Arg-cyclo(Dab-His-D-Phe-Arg-Trp-hGlu)-NH2]

functional status at MC4r (agonist / partial agonist) [1]: agonist
SMILES: CC(=O)N[C@@H](CCCNC(=N)N)C(=O)N[C@H]1CCNC(=O)CCC[C@@H](C(N)=O)NC(=O)[C@H](Cc2c[nH]c3ccccc23)NC(=O)[C@H](CCCNC(=N)N)NC(=O)[C@@H](Cc2ccccc2)NC(=O)[C@H](CCN)NC1=O [compound 129, Ac-Arg-cyclo(Dab-Dab-D-Phe-Arg-Trp-hGlu)-NH2]

Ki [7]: 4 nM
SMILES: CC(=O)N[C@@H](CCCNC(=N)N)C(=O)N[C@H]1CC(=O)NCCCC[C@@H](C(N)=O)NC(=O)[C@H](Cc2c[nH]c3ccccc23)NC(=O)[C@H](CCCNC(=N)N)NC(=O)[C@@H](Cc2ccccc2)NC(=O)[C@H](CCN)NC1=O [compound 163, Ac-Arg-cyclo(Asp-Dab-D-Phe-Arg-Trp-Lys)-NH2]

Ki [7]: 57 nM
SMILES: CC(=O)N[C@@H](CCCNC(=N)N)C(=O)N[C@H]1CC(=O)NCCCC[C@@H](C(=O)O)NC(=O)[C@H](Cc2c[nH]c3ccccc23)NC(=O)[C@H](CCCNC(=N)N)NC(=O)[C@@H](Cc2ccccc2)NC(=O)[C@H](CCN)NC1=O [compound 164, Ac-Arg-cyclo(Asp-Dab-D-Phe-Arg-Trp-Lys)-OH]

Second part, the compound before the results:

SMILES: CC(=O)N[C@@H](CCCNC(=N)N)C(=O)N[C@H]1CC(=O)NCCCC[C@@H](C(N)=O)NC(=O)[C@H](Cc2c[nH]c3ccccc23)NC(=O)[C@H](CCCNC(=N)N)NC(=O)[C@@H](Cc2ccccc2)NC(=O)[C@H](Cc2c[nH]cn2)NC1=O [Peptide No. 1, Ac-Arg-cyclo(Asp-His-D-Phe-Arg-Trp-Lys)-NH2]
functional status at MC4r (agonist / partial agonist) [1]: agonist

SMILES: CC(=O)N[C@@H](CCCNC(=N)N)C(=O)N[C@H]1CC(=O)NCCCC[C@@H](C(N)=O)NC(=O)[C@H](Cc2c[nH]c3ccccc23)NC(=O)[C@H](CCCNC(=N)N)NC(=O)[C@@H](Cc2ccccc2)NC(=O)[C@H](C(C)C)NC1=O [Peptide No. 16, Ac-Arg-cyclo(Asp-Val-D-Phe-Arg-Trp-Lys)-NH2]
functional status at MC4r (agonist / partial agonist) [1]: partial agonist

SMILES: CC(=O)N[C@@H](CCCNC(=N)N)C(=O)N[C@H]1CC(=O)NCCCC[C@@H](C(N)=O)NC(=O)[C@H](Cc2c[nH]c3ccccc23)NC(=O)[C@H](CCCNC(=N)N)NC(=O)[C@@H](Cc2ccccc2)NC(=O)[C@H](CCC(N)=O)NC1=O [Peptide No. 32, Ac-Arg-cyclo(Asp-Gln-D-Phe-Arg-Trp-Lys)-NH2]
functional status at MC4r (agonist / partial agonist) [1]: agonist

SMILES: CC(=O)N[C@@H](CCCNC(=N)N)C(=O)N[C@H]1CCCNC(=O)CC[C@@H](C(N)=O)NC(=O)[C@H](Cc2c[nH]c3ccccc23)NC(=O)[C@H](CCCNC(=N)N)NC(=O)[C@@H](Cc2ccccc2)NC(=O)[C@H](CC(N)=O)NC1=O [Peptide No. 154, Ac-Arg-cyclo(Orn-Asn-D-Phe-Arg-Trp-Glu)-NH2]
decrease in fasted plasma glucose, day -2 to day 12 [2]: most pronounced decrease
maximum weight loss compared to baseline (study day 0) [3]: 1.76 g
maximum weight loss compared to baseline (study day 0) [4]: 4.2 g
appetite on day 9 [5]: recovered on day 9
food intake after start of Peptide No. 154 dosing ([5]; Peptide No. 154 s.c. from day 5): decreased starting on day 5
feed intake at 2 and 6 hours post lights off compared with vehicle ([5]; days 5-9): significant decreased feed intakes
body weight compared with vehicle ([5]; subcutaneous dosing twice daily, days 5-10): decreased animal's body weight significantly

SMILES: CC(=O)NCC[C@@H]1NC(=O)[C@@H](NC(=O)[C@H](CCCNC(=N)N)NC(C)=O)CC(=O)NCCCC[C@@H](C(N)=O)NC(=O)[C@H](Cc2c[nH]c3ccccc23)NC(=O)[C@H](CCCNC(=N)N)NC(=O)[C@@H](Cc2ccccc2)NC1=O [compound 114, Ac-Arg-cyclo(Asp-Dab(Acetyl)-D-Phe-Arg-Trp-Lys)-NH2]
Ki [6]: 88 nM
